“And” between values parts separate entries of the source, which are not always exact repeats. Equal entries are not always repeated. The source made the active and inactive calls.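 How the source made its calls: active means compounds giving half or more protection of infected cells from virus-caused growth loss, again on retest; inactive means the rest.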
System: CEM cells HIV-1 protection, formazan growth assay
Assay: NCI AIDS Antiviral Assay
Settings: for IC50: measured here: growth of uninfected CEM cells
Outline: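 Soluble formazan readout of cell growth; CEM cells ± HIV-1; 5 drug concs. ≥50% protection → retest; ≥50% again = moderately active; reproducible 100% = confirmed active.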

| Structure (SMILES) | EC50 [µM] | IC50 | outcome |
| --- | --- | --- | --- |
| CC1CCc2ccccc2O1 (configuration not stated) | > 200 | > 200 µM | – |
| OC1CSc2nc3ccccc3n2C1 (configuration not stated) | > 200 | > 200 µM | – |
| Nc1nc2ccc(CO)nc2c(=O)[nH]1 | > 200 | > 200 µM | – |
| CO/C=C1\CCC2c3c(c4ccccc4n3C)CC1N2Cc1ccccc1 (configuration not stated) | > 14.5 | 8.13 µM | – |
| COC(=O)c1ccc(NC(=O)O/N=C(\Cl)C(C)C)cc1 | > 20 | 3.63 µM | – |
| CCOC(OCC)(OCC)C(Br)CC (configuration not stated) | > 933 | > 933 µM | – |
| O=[N+]([O-])c1ccc(Cl)cc1N/N=C/c1cccc2cccnc12 | > 200 | > 200 µM | – |
| O=C(/C=C/c1ccccc1)Nc1ccccc1SCCCCl | > 200 | 9.55 µM | – |
| CCOC(=O)/C=C/SCCCC(=O)O | – | > 1150 µM and 1150 µM | – |
| CN1CCC2CC1c1ccn(C)c1C2=O (configuration not stated) | > 1230 | > 1230 µM | – |
| Cc1cn2cc(-c3ccncc3)nc2s1 | > 209 | 112 µM | – |
| Cn1c(=S)c2c(nc(SCCc3ccccc3)n2CCc2ccccc2)n(C)c1=O | > 200 | 29.5 µM | – |
| CSC1=Nc2ccccc2SC(c2ccccc2)C1c1ccccc1 (configuration not stated) | > 49 | 35.5 µM | – |
| COc1ccc(NC(C)c2ccncc2)cc1 (configuration not stated) | > 200 | > 200 µM | – |
| COC1OC(CO)C(NC2=N[C@@H]3[C@H](O2)[C@@H](O)[C@H](O)[C@]3(O)CO)C(O)C1O (some centres not stated) | > 50.1 | > 50.1 µM | – |
| CC(C)(C)OC(=O)NCCNC(=O)CN(CC(=O)O)C1CCCCC1N(CC(=O)O)CC(=O)O (configuration not stated) | > 200 | 170 µM | – |
| CC/C(Cl)=N\OC(=O)Nc1ccc(F)c([N+](=O)[O-])c1 | > 200 | 2.82 µM | – |
| O=C(O)CN1CCN(CC(=O)O)CCN(CC(=O)O)CCN(CC(=O)O)CC1 | > 200 | > 200 µM | – |
| Cc1ccc(S(=O)(=O)N2CCC(C(=O)O)(c3ccccc3)CC2)cc1 | > 182 | > 182 µM | – |
| Brc1ccc2c(c1)C1C(CO2)C(c2ccccc2)=NN1c1ccccc1 (configuration not stated) | > 64.6 | > 64.6 µM | – |
| CCCS(=N)(=O)CCC(N)C(=O)O (configuration not stated) | > 200 | > 200 µM | – |
| CC(C)=CCC[C@@H](C)C1=C(O)C(Nc2ccccc2)=C(C)C(=O)C1=O | > 200 | 13.2 µM | – |

| Structure (SMILES) | EC50 [µM] | IC50 | outcome |
| --- | --- | --- | --- |
| C=CCOc1ccc(/C(N=Nc2ccc(Cl)cc2)=N/NC(=O)c2ccccc2)cc1OC | > 200 | 87.1 µM | – |
| Cc1cc(N=Nc2cc(S(=O)(=O)O)c(N)cc2N)ccc1N=Nc1ccc2cc(S(=O)(=O)O)cc(S(=O)(=O)O)c2c1 | – | – | inactive |
| O=C1c2ccccc2C(=O)C2OC12 (configuration not stated) | > 20 | 0.977 µM | – |
| CCOC(=O)C1=C(C)/C(=C\c2[nH]c(C)c(C(=O)OCC)c2C)N=C1C | > 200 | > 200 µM | – |
| N#Cc1c(OCCF)c2ccccc2n2c1nc1ccccc12 | > 100 | > 100 µM | – |
| COCCCC(=O)NC(c1ccccc1)(c1ccccc1)c1ccccc1 | > 200 | > 200 µM | – |
| CC/C(=N/O)C(C)C(=O)CCC(=O)Nc1ccc(Cl)cc1 (configuration not stated) | > 83.2 | > 83.2 µM | – |
| CC(C)(C)C[PH+](CC[PH+](CC(C)(C)C)CC(C)(C)C)CC(C)(C)C.[C-]#[O+].[C-]#[O+].[C-]#[O+].[C-]#[O+].[Mo] | > 3.47 | > 3.47 µM | – |
| N#C/C(N)=C(\C#N)N=CNc1ccc(N)cc1 | > 200 | > 100 µM | – |
| CC(C)(O)[C@@H]1CC[C@](C)(C2[C@@H](O)C[C@@]3(C)C4C[C@H](OC5OCC(O)C(O)C5O)[C@H]5C(C)(C)[C@@H](OC6OCC(O)C(O)C6OC6OCC(O)C(O)C6O)CC[C@@]56C[C@@]46CC[C@]23C)O1 (some centres not stated) | > 200 | > 200 µM | – |
| COc1ccc(C2Oc3ccc(Cl)cc3C=C2[N+](=O)[O-])cc1OC (configuration not stated) | > 2 | 0.724 µM | – |
| CCCCCCCCCCCCn1[se]c2ccccc2c1=O | 5.01 | 5.5 µM | – |
| CN(Nc1cc(=O)[nH]c(=O)[nH]1)c1ccccc1 | > 200 | > 200 µM | – |
| O=C1CC(=O)NC(=NN2C(=O)/C(=C/C(=O)c3ccco3)N=C2c2ccccc2)N1 | > 200 | 32.4 µM | – |
| CC1OC(OC2C(O[C@@H]3C[C@@H]4CC[C@@H]5[C@H](CC[C@]6(C)[C@@H]7[C@H](C[C@@H]56)O[C@]5(CC[C@@H](C)CO5)[C@H]7C)[C@@]4(C)C[C@H]3O)OC(CO)C(OC3OC(CO)C(O)C(O)C3O)C2O)C(O)C(O)C1O (some centres not stated) | > 10 | 1.82 µM | – |
| COc1cc(/C=C/C(=O)C(C)(C)C)cc(OC)c1OC | > 178 | 11.5 µM | – |
| CC1(C)C(=O)c2ccccc2OC1N1CCN(C2Oc3ccccc3C(=O)C2(C)C)CC1 (configuration not stated) | – | – | inactive |
| O=S(=O)(Nc1ccccc1Cl)c1ccccc1 | > 200 | 83.2 µM | – |
| O=C1C(NS(=O)(=O)c2ccccc2)=C(n2ccnc2)C(=O)c2ccccc21 | > 200 | 91.2 µM | – |
| CCC(CC)(CC(=O)O)CC(=O)O | – | – | inactive |
| CCOC(=O)C(=CC[C@@H]1N[C@H](C(N)=O)Cc2c1[nH]c1ccccc21)C(=O)OCC | > 33.9 | > 33.9 µM | – |
| N/C(=N\N=C/c1c(O)cc(O)cc1O)NO | – | – | inactive |

| Structure (SMILES) | EC50 [µM] | IC50 | outcome |
| --- | --- | --- | --- |
| O=[N+]([O-])c1ccc(C(O)(C#CCN2CCCC2)c2ccccc2)cc1 (configuration not stated) | > 200 | > 100 µM | – |
| COc1ccccc1/C=C1\C(=O)N(C(=O)Cc2ccccc2)N=C1C | > 15.5 | > 15.5 µM | – |
| [N-]=[N+]=C(C(=O)OCC#CCOC(=O)C(=[N+]=[N-])S(=O)(=O)c1ccccc1)S(=O)(=O)c1ccccc1 | > 200 | 135 µM | – |
| Cn1c(=O)c2c(nc3n(Cc4ccccc4)c(=O)c(NCCBr)cn23)n(C)c1=O | > 126 | 49 µM | – |
| O=C(CC(C(=O)c1ccsc1)c1ccccc1)c1ccccc1 (configuration not stated) | > 200 | 174 µM | – |
| CCCCCC(C(O)C#N)C(O)(C(F)(F)F)C(F)(F)F (configuration not stated) | > 200 | 52.5 µM | – |
| Cc1cc(O)c2c(c1)C(C1OC(CO)C(O)C(O)C1O)c1cc(O)cc(O)c1C2=O (configuration not stated) | > 200 | > 200 µM | – |
| CCOP(=O)(OCC)C1CC(n2cc(C)c(=O)[nH]c2=O)OC1CO (configuration not stated) | > 200 | 182 µM | – |
| CO/C1=C\C(C)=C\C(C)C(O)C(C)C/C(C)=C/C=C/C(OC)C(C(C)C(O)C(C)C2(O)CC(O)C(C)C(C(C)C)O2)OC1=O (configuration not stated) | > 0.2 | 0.0129 µM | – |
| CC1=N/C(=C/c2ccc3c(c2)OCO3)C(=O)O1 | > 155 | 105 µM | – |
| CN(C)CC1CCC/C(=C\c2ccc(N(C)C)cc2)C1=O (configuration not stated) | > 200 | 2.24 µM | – |
| CCOC(=O)c1cn(C)c2c1C(=O)C(C(=O)OCC)CCN2C(=O)OCC (configuration not stated) | > 240 | > 240 µM | – |
| CN[C@@H]1C[C@H]2O[C@@](C)([C@@H]1OC)n1c3ccccc3c3c4c(c5c6ccccc6n2c5c31)C(=O)N[C@@H]4O | > 38.9 | 0.0309 µM | – |
| Nc1[nH]n(-c2ccccc2)c(=O)c1/C=N/C(=S)N=Nc1c(O)[nH]c2ccccc12 | > 200 | 83.2 µM | – |
| CC1(C)OC(=C(C#N)C#N)C(C#N)=C1/C=C/c1ccncc1 | > 151 | 0.813 µM | – |
| C=C1C(O)O[C@@H]2O[C@@]3(C)CC[C@H]4[C@H](C)CCC1[C@@]24O3 (some centres not stated) | > 200 | 95.5 µM | – |
| S=C1Cc2cc3ccccc3nc2-c2ccccc2N1 | > 100 | > 100 µM | – |
| CO[C@]1(c2ccc([N+](=O)[O-])cc2)Oc2ccccc2C(=O)[C@@]1(Nc1ccc(C=O)cc1)OC | > 200 | 174 µM | – |
| [N-]=[N+]=NCC1OCC(O)C(OCc2ccccc2)C1OCc1ccccc1 (configuration not stated) | > 200 | 95.5 µM | – |
| O=C1c2ccccc2C(=O)N1C/C=N/NS(=O)(=O)c1ccc(Br)cc1 | > 112 | > 112 µM | – |
| COc1ccc(C2SC(=S)N(Cc3ccc(Cl)cc3)N2Cc2ccc(Cl)cc2)cc1 (configuration not stated) | > 200 | 34.7 µM | – |
| Fc1ccc(C(=NCc2ccccc2)N2CCOCC2)cc1 | > 200 | > 200 µM | – |

| Structure (SMILES) | EC50 [µM] | IC50 | outcome |
| --- | --- | --- | --- |
| Cc1cn(C2C[C@@H]3C(COC(c4ccc([N+](=O)[O-])cc4)N3O)O2)c(=O)[nH]c1=O (some centres not stated) | > 200 | > 200 µM | – |
| N#CCc1nc2ccccc2c(=O)[nH]1 | 17.8 | 69.2 µM | – |
| CN1CCC/C1=C1\C(=O)c2cccn2C1=O | > 200 | > 200 µM | – |
| COc1ccc(C(=O)O/N=C2\CCCC\C2=C/c2ccccc2)cc1 | – | – | inactive |
| O=C1CCC(=O)C(C(=O)CCC(=O)Nc2cccc(Cl)c2)C1 (configuration not stated) | > 562 | > 562 µM | – |
| Nc1ccc2cc3[nH]c4cc(N)ccc4c3nc2c1 | > 1.35 | 0.339 µM | – |
| Cc1ccc2c(c1)C(c1ccccc1)C1COC(=O)C1O2 (configuration not stated) | > 93.3 | 5.25 µM | – |
| c1ccc2sc(N3CCCCC3)nc2c1 | > 200 | 81.3 µM | – |
| NC(=O)c1ccc([Se][Se]c2ccc(C(N)=O)cc2)cc1 | > 13.2 | 6.92 µM | – |
| COC(=O)CCN(CCC(=O)OC)C1CC1 | > 200 | > 200 µM | – |
| C=CCCC(=O)CC(=O)OC | > 1580 | > 1580 µM | – |
| CC1(C)CC(=O)c2c(nc3c(ccc4ccccc43)c2-c2ccc(NC(=O)CCCCCCCCC(=O)Nc3ccc(-c4c5c(nc6c4ccc4ccccc46)CC(C)(C)CC5=O)cc3)cc2)C1 | > 100 | > 100 µM | – |
| C=CCOC(=O)Cn1cnc2c(N)ncnc21 | > 200 | > 200 µM | – |
| C#CCCOC1(OC)N=NC(C)(C)O1 (configuration not stated) | > 200 | > 200 µM | – |
| C=CCC1(c2ccc(OC)cc2)C=CC(=O)CC1 (configuration not stated) | > 282 | 79.4 µM | – |
| Nc1nc(SCC(=O)c2ccccc2)nc2nc3c(c(-c4ccccc4)c12)CCCC3 | > 100 | 66.1 µM | – |
| C=CCC1(C#N)C(=S)NC2=C(C(=O)CC(C)(C)C2)C1c1ccccc1 (configuration not stated) | > 200 | > 200 µM | – |
| Cc1cc(=O)oc2cc(O/C(=C\c3ccc(O)cc3)c3nc4ccccc4c(=O)o3)ccc12 | > 22.9 | > 22.9 µM | – |
| Cc1nn2c(=O)c([N+](=O)[O-])c(/C=C/c3ccco3)nc2s1 | > 200 | 45.7 µM | – |
| N#Cc1nc(C2=C(Cl)c3ccccc3OC2)[nH]c1C#N | – | – | inactive |
| COC(=O)C(Cc1ccccc1)NC(=O)CCCNC(=O)OCc1ccccc1 (configuration not stated) | > 200 | 87.1 µM | – |
